Laboratory results as given in US20250346601A1, “HETEROCYCLIC COMPOUNDS FOR THE PREVENTION AND THERAPY OF CIRCADIAN RHYTHM DISORDERS” (UNIVERZITA PALACKEHO V OLOMOUCI, priority 2022, published 2025).
“And” between values parts separate entries of the source, which are not always exact repeats. Identical values can stand only once.

Tests used:
[1] = system: NIH3T3 line transfected with the Per2-Luc reporter; assay: Period of the circadian rhythm in NIH3T3 fibroblasts with Per2-Luc reporter (luminescence, cosinor analysis); assay type: cell-based, mouse; settings: NIH3T3, DMSO control = 1.00
Method: NIH3T3 mouse embryonic fibroblasts were grown in standard DMEM with 10% fetal bovine serum. NIH3T3 cells were transfected with 1 μg of Per2-Luc reporter using GeneJuice and selected under hygromycin. The cell line was clonally expanded and a single monoclonal cell line was used for further experiments. Cells were cultured in a 96-well plate in growth medium to 90+% confluence. Test compound or vehicle (DMSO) was applied to recording medium with 100 U/ml penicillin, 100 μg/ml streptomycin, 1x GlutaMAX, 10% fetal calf serum and 0.1 mM Luciferin-EF (Promega Madison, WI, USA). Luminescence was recorded every hour for the next 144 hours. Circadian rhythm analysis was performed using cosinor analysis. Period length was expressed relative to the period of cells affected only by DMSO vehicle (their period length is therefore 1.00).

[2] = system: U2OS line transduced with the Bmal 1-Luc reporter; assay: Period of the circadian rhythm in U2OS cells with Bmal1-Luc reporter (luminescence, cosinor analysis); assay type: cell-based, Human; settings: U2OS, DMSO control = 1.00
Method: Human osteosarcoma U2OS cells were grown in standard DMEM medium with 10% fetal bovine serum. U2OS cells were transduced with lentiviral particles containing a Bmall-Luc fusion reporter and selected under Blasticidin. The cell line was clonally expanded and a single monoclonal cell line was used for further experiments. Cells were cultured in a 384-well plate in growth medium to 90+% confluence. Test compound or vehicle (DMSO) was applied to recording medium with 100 U/ml penicillin, 100 ug/ml streptomycin, 1x GlutaMAX, 10% fetal bovine serum, and 0.1 mM Luciferin-EF. Luminescence was recorded every hour for the next 144 hours. Circadian rhythm analysis was performed using cosinor analysis.
The length of the period was expressed relative to the period of cells affected only by DMSO vehicle (their period is therefore 1.00). […] The overall effect on circadian oscillations unequivocally proves that the compounds of formula I can be also used to temporally modulate the concentration and activity of not only BMAL1, but also other components of the oscillator including the critical components PER2, CRY and CLOCK in time, as these are an essential part of the mechanism generating the rhythmic expression of the luminescent reporter used. The concentration and level of other proteins, whose rhythmic expression is controlled by an oscillator in the brain and peripheral tissues (so-called clock-controlled genes), are also necessarily affected. The influence of the compounds of formula I on the activity of oscillator components and subordinate genes also means influencing the physiological processes of the cell controlled by these genes and proteins. N^6-furfuryladenine was used as a reference compound. […] The ability to shift the phase of the circadian cycle can be seen in FIG. 2.

CCOCCn1cnc2c(NCc3ccco3)ncnc21 [9-(2-ethoxyethyl)-N-(furan-2-ylmethyl)-9H-purin-6-amine, reference compound]
Period length ± standard error of the mean (expressed relative to the control) at the indicated concentration ([1]; 50 μM): 50 μM: 0.97 ± 0.03
Period length ± standard error of the mean (expressed relative to control) at the indicated concentration ([2]; 50 μM): 50 μM: 0.99 ± 0.01

CN(C)c1nc(NCc2ccco2)c2ncn(C3CCOCC3)c2n1 [Compound 53]
Period length ± standard error of the mean (expressed relative to control) at the indicated concentration ([2]; 20 μM): 20 μM: 1.22 ± 0.01

OCCNc1nc(NCc2ccco2)c2ncn(C3CCCCO3)c2n1 (stereo not shown) [Compound 45, 2-({6-[(furan-2-ylmethyl)amino]-9-(tetrahydro-2H-pyran-2-yl)-9H-purin-2-yl}amino)ethan-1-ol]
Period length ± standard error of the mean (expressed relative to the control) at the indicated concentration ([1]; 50 μM): 50 μM: 1.32 ± 0.01
Period length ± standard error of the mean (expressed relative to control) at the indicated concentration ([2]; 20 μM): 20 μM: 1.04 ± 0.01

COCn1cnc2c(NCc3ccco3)ncnc21 [N-(furan-2-ylmethyl)-9-(methoxymethyl)-9H-purin-6-amine, reference compound]
Period length ± standard error of the mean (expressed relative to the control) at the indicated concentration ([1]; 50 μM): 50 μM: 0.96 ± 0.02
Period length ± standard error of the mean (expressed relative to control) at the indicated concentration ([2]; 50 μM): 50 μM: 1.01 ± 0.01

CC(C)Oc1nc(NCc2ccco2)c2ncn(C3CCCCO3)c2n1 (stereo not shown) [Compound 49, N-(furan-2-ylmethyl)-2-isopropoxy-9-(tetrahydro-2H-pyran-2-yl)-9H-purin-6-amine]
Period length ± standard error of the mean (expressed relative to control) at the indicated concentration ([2]; 20 μM): 20 μM: 1.14 ± 0.01

c1ccc(Cn2cnc3c(NCc4ccco4)ncnc32)cc1 [9-benzyl-N-(furan-2-ylmethyl)-9H-purin-6-amine, reference compound]
Period length ± standard error of the mean (expressed relative to the control) at the indicated concentration ([1]; 10 μM): 10 μM: 1 ± 0.02
Period length ± standard error of the mean (expressed relative to control) at the indicated concentration ([2]; 10 μM): 10 μM: 1 ± 0.02

CN(CCN)c1nc(NCc2ccco2)c2ncn(C3CCOCC3)c2n1 [Compound 54]
Period length ± standard error of the mean (expressed relative to control) at the indicated concentration ([2]; 5 μM): 5 μM: 1.14 ± 0.02

c1coc(CNc2nc(NC3CCCC3)nc3c2ncn3C2CCCCO2)c1 (stereo not shown) [Compound 39]
Period length ± standard error of the mean (expressed relative to control) at the indicated concentration ([2]; 20 μM): 20 μM: 1.05 ± 0.01

c1coc(CNc2ncnc3c2ncn3C2CCCO2)c1 (stereo not shown) [Compound 2]
Period length ± standard error of the mean (expressed relative to control) at the indicated concentration ([2]; 10 μM): 10 μM: 1.05 ± 0.01

NCCNc1nc(NCc2ccco2)c2ncn(C3CCCCO3)c2n1 (stereo not shown) [Compound 41]
Period length ± standard error of the mean (expressed relative to control) at the indicated concentration ([2]; 1 μM): 1.03 ± 0.01
Period length ± standard error of the mean (expressed relative to control) at the indicated concentration ([2]; 5 μM): 1.07 ± 0
Period length ± standard error of the mean (expressed relative to control) at the indicated concentration ([2]; 20 μM): 1.32 ± 0.01

Cc1ccc(CNc2nc(Cl)nc3c2ncn3C2CCCO2)o1 (stereo not shown) [Compound 12]
Period length ± standard error of the mean (expressed relative to control) at the indicated concentration ([2]; 10 μM): 10 μM: 1.16 + 0.01

CC(C)Oc1nc(NCc2ccco2)c2ncn(C3CCOC3)c2n1 (stereo not shown) [Compound 32]
Period length ± standard error of the mean (expressed relative to control) at the indicated concentration ([2]; 20 μM): 20 μM: 1.09 ± 0

Cc1ccc(CNc2ncnc3nc[nH]c23)o1 [N^6-(5-methylfurfuryl)adenine, reference compound]
Period length ± standard error of the mean (expressed relative to control) at the indicated concentration ([2]; 50 μM): 50 μM: 1.01 ± 0.02

CNc1nc(NCc2ccco2)c2ncn(C3CCOCC3)c2n1 [Compound 52]
Period length ± standard error of the mean (expressed relative to control) at the indicated concentration ([2]; 20 μM): 20 μM: 1.08 ± 0.01

Clc1nc(NCc2ccco2)c2ncn(C3CCCCO3)c2n1 (stereo not shown) [Compound 9]
Period length ± standard error of the mean (expressed relative to control) at the indicated concentration ([2]; 10 μM): 1.09 ± 0.01
Period length ± standard error of the mean (expressed relative to control) at the indicated concentration ([2]; 20 μM): 1.11 ± 0.01

CN(C)CCNc1nc(NCc2ccco2)c2ncn(C3CCOC3)c2n1 (stereo not shown) [Compound 28]
Period length ± standard error of the mean (expressed relative to control) at the indicated concentration ([2]; 20 μM): 20 μM: 1.16 ± 0

Cc1ccc(CNc2nc(Cl)nc3c2ncn3C2CCCCO2)o1 (stereo not shown) [Compound 13, 2-chloro-N-[(5-methylfuran-2-yl)methyl]-9-(tetrahydro-2H-pyran-2-yl)-9H-purin-6-amine]
Period length ± standard error of the mean (expressed relative to the control) at the indicated concentration ([1]; 10 μM): 10 μM: 1.19 ± 0.01

c1coc(CNc2ncnc3c2ncn3C2CCOC2)c1 (stereo not shown) [Compound 3, N-(furan-2-ylmethyl)-9-(tetrahydrofuran-3-yl)-9H-purin-6-amine]
Period length ± standard error of the mean (expressed relative to control) at the indicated concentration ([2]; 10 μM): 10 μM: 1.06 ± 0.01

OCCNc1nc(NCc2ccco2)c2ncn(C3CCOCC3)c2n1 [Compound 57]
Period length ± standard error of the mean (expressed relative to control) at the indicated concentration ([2]; 20 μM): 20 μM: 1.16 ± 0.01

CN(C)CCNc1nc(NCc2ccco2)c2ncn(C3CCOCC3)c2n1 [Compound 55, N^2-(2-(dimethylamino)ethyl)-N^6-(furan-2-ylmethyl)-9-(tetrahydro-2H-pyran-4-yl)-9H-purine-2,6-diamine]
Period length ± standard error of the mean (expressed relative to control) at the indicated concentration ([2]; 4 μM): 4 μM: 1.16 ± 0.01

c1coc(CNc2nc(N3CCOCC3)nc3c2ncn3C2CCOC2)c1 (stereo not shown) [Compound 31]
Period length ± standard error of the mean (expressed relative to control) at the indicated concentration ([2]; 20 μM): 20 μM: 1.13 ± 0.01

c1coc(CNc2nc(N3CCOCC3)nc3c2ncn3C2CCCCO2)c1 (stereo not shown) [Compound 47]
Period length ± standard error of the mean (expressed relative to control) at the indicated concentration ([2]; 5 μM): 1.08 ± 0.01
Period length ± standard error of the mean (expressed relative to control) at the indicated concentration ([2]; 20 μM): 1.47 ± 0.03

CN(CCN)c1nc(NCc2ccco2)c2ncn(C3CCCCO3)c2n1 (stereo not shown) [Compound 43]
Period length ± standard error of the mean (expressed relative to control) at the indicated concentration ([2]; 1 μM): 1 μM: 1.08 ± 0.01

c1coc(CNc2nc(N3CCOCC3)nc3c2ncn3C2CCOCC2)c1 [Compound 58]
Period length ± standard error of the mean (expressed relative to control) at the indicated concentration ([2]; 20 μM): 20 μM: 1.42 ± 0.04

CNc1nc(NCc2ccco2)c2ncn(C3CCOC3)c2n1 (stereo not shown) [Compound 25]
Period length ± standard error of the mean (expressed relative to control) at the indicated concentration ([2]; 20 μM): 20 μM: 1.06 ± 0.01

c1coc(CNc2ncnc3c2ncn3C2CCOCC2)c1 [Compound 5]
Period length ± standard error of the mean (expressed relative to control) at the indicated concentration ([2]; 10 μM): 10 μM: 1.05 ± 0.01

Clc1nc(NCc2ccco2)c2ncn(C3CCCO3)c2n1 (stereo not shown) [Compound 7]
Period length ± standard error of the mean (expressed relative to control) at the indicated concentration ([2]; 10 μM): 10 μM: 1.13 ± 0.02

Clc1nc(NCc2ccco2)c2[nH]cnc2n1 [2-chloro-N^6-furfuryladenine, reference compound]
Period length ± standard error of the mean (expressed relative to control) at the indicated concentration ([2]; 20 μM): 20 μM: 1.00 ± 0.03

CC(C)Oc1nc(NCc2ccco2)c2ncn(C3CCOCC3)c2n1 [Compound 59]
Period length ± standard error of the mean (expressed relative to control) at the indicated concentration ([2]; 20 μM): 1.2 ± 0.01 and 1.11 ± 0.02

CN(CCN)c1nc(NCc2ccco2)c2ncn(C3CCOC3)c2n1 (stereo not shown) [Compound 27]
Period length ± standard error of the mean (expressed relative to control) at the indicated concentration ([2]; 20 μM): 20 μM: 1.25 ± 0.01

OCCNc1nc(NCc2ccco2)c2ncn(C3CCCC3)c2n1 [Compound 19]
Period length ± standard error of the mean (expressed relative to control) at the indicated concentration ([2]; 1 μM): 1.07 ± 0.01
Period length ± standard error of the mean (expressed relative to control) at the indicated concentration ([2]; 4 μM): 1.21 ± 0.01

OCCNc1nc(NCc2ccco2)c2ncn(C3CCOC3)c2n1 (stereo not shown) [Compound 30]
Period length ± standard error of the mean (expressed relative to control) at the indicated concentration ([2]; 20 μM): 20 μM: 1.05 ± 0

CN(C)c1nc(NCc2ccco2)c2ncn(C3CCCCCO3)c2n1 (stereo not shown) [Compound 61]
Period length ± standard error of the mean (expressed relative to control) at the indicated concentration ([2]; 10 μM): 1.04 ± 0.01
Period length ± standard error of the mean (expressed relative to control) at the indicated concentration ([2]; 20 μM): 1.15 ± 0.02

Cc1ccc(CNc2nc(N(C)C)nc3c2ncn3C2CCCCO2)o1 (stereo not shown) [Compound 51]
Period length ± standard error of the mean (expressed relative to the control) at the indicated concentration ([1]; 0.83 μM): 1.05 ± 0.02
Period length ± standard error of the mean (expressed relative to the control) at the indicated concentration ([1]; 10 μM): 1.08
Period length ± standard error of the mean (expressed relative to the control) at the indicated concentration ([1]; 50 μM): 0.02; 50 μM: 1.74 ± 0.2

NCCNc1nc(NCc2ccco2)c2ncn(C3CCOC3)c2n1 (stereo not shown) [Compound 29]
Period length ± standard error of the mean (expressed relative to control) at the indicated concentration ([2]; 20 μM): 20 μM: 1.09 ± 0

c1coc(CNc2nc(N3CCCC3)nc3c2ncn3C2CCCCO2)c1 (stereo not shown) [Compound 40]
Period length ± standard error of the mean (expressed relative to control) at the indicated concentration ([2]; 10 μM): 10 μM: 1.04 ± 0

Clc1nc(NCc2ccco2)c2ncn(C3CCOC3)c2n1 (stereo not shown) [Compound 8]
Period length ± standard error of the mean (expressed relative to control) at the indicated concentration ([2]; 10 μM): 1.04 ± 0.01
Period length ± standard error of the mean (expressed relative to control) at the indicated concentration ([2]; 20 μM): 1.22 ± 0

CC(C)Oc1nc(NCc2ccco2)c2ncn(C3CCCC3)c2n1 [Compound 21]
Period length ± standard error of the mean (expressed relative to control) at the indicated concentration ([2]; 20 μM): 20 μM: 1.26 ± 0.06

Nc1ncnc2c1ncn2C1CCCO1 (stereo not shown) [9-(tetrahydrofuran-2-yl)-9H-purin-6-amine, reference compound]
Period length ± standard error of the mean (expressed relative to control) at the indicated concentration ([2]; 20 μM): 20 μM: 0.98 ± 0.02
